Experimental data as given in paper PMC11898654, “The Na^+-K^+-ATPase alpha subunit is an entry receptor for white spot syndrome virus” (mBio, 2025).
Counter-ions that a name gives are not always drawn.

What was measured:
WSSV VP28 protein = WSSV VP28 protein (White spot syndrome virus, UniProt Q9ICB7); assay type: binding; conditions: SPR, different concentrations of the synthetic peptides
Method: SPR experiments were conducted using a Biacore T200 system (GE Healthcare, USA). […] Regeneration of the sensor chip was performed by injecting glycine (pH 3.0) for 30 s at a flow rate of 30 µL/min. The Biacore Insight Evaluation Software application was utilized to analyze the association and dissociation rates using a steady state affinity analysis, and the equilibrium dissociation constant (KD) was determined as the ratio of the dissociation rate to the association rate.

WSSV [1] = assay: Endocytic inhibitors injected into shrimp, WSSV entry and replication in hemocytes; assay type: in vivo, White spot syndrome virus; conditions: shrimp injected with inhibitor before WSSV; for effect on WSSV entry and replication in shrimp hemocytes: qPCR and flow cytometry, entry 4 h, replication 24 h post-infection
Method: Given that viruses enter host cells by exploiting various endocytic pathways, such as clathrin-mediated endocytosis, caveolin-mediated endocytosis, and macropinocytosis ([31]), we went on to examine which of these endocytic pathways is used by WSSV to enter hemocytes. […].
Fig. S5 WSSV entry into shrimp hemocytes through multiple endocytic pathways. (A-F) Identification of endocytic pathways triggered by WSSV. Shrimps were injected with either WSSV or PBS (negative control), and hemocytes were harvested 4 hours post-infection. Hemocytes were incubated with endocytic markers TFN-AF555, CTB-AF555, and DTN-AF568, and uptake rates were analyzed by flow cytometry. Panels (A-C) display representative flow cytometry images for the uptake of TFN-AF555, CTB-AF555, and DTN-AF568, respectively. Quantified uptake rates from three independent experiments are shown in panels (D-F). (G-J) Impact of endocytic inhibitors on WSSV entry. Shrimps were injected with the inhibitors CPZ, GEN, or AMR, and hemocytes were collected 2 hours later for cytotoxicity analysis using the CCK8 kit (G). FITC-labeled or unlabeled WSSV particles were subsequently injected, and hemocytes were harvested 4 hours post-infection for flow cytometry (H) and qPCR (J) to assess WSSV entry. Data from three independent flow cytometry assays are presented in panel (I). (K) Effect of endocytic inhibitors on WSSV replication. Shrimps were injected with WSSV particles following inhibitor treatment, and hemocytes were collected 24 hours post-infection for WSSV copy number quantification via qPCR. Statistical significance was determined using a two-tailed Student’s t-test. * P < 0.05, ** P < 0.01, and *** P < 0.001.

WSSV [2] = assay: Endocytic inhibitor treatment, WSSV entry in PvATP1A-overexpressing PAC2 cells; assay type: cell-based, White spot syndrome virus; conditions: 5 µM inhibitor pre-treatment 30 min, WSSV MOI = 0.1 for 1 h, qPCR, compared with cells treated with CPZ
Method: Endocytic inhibitors, chlorpromazine hydrochloride (CPZ, Cat. No. HY-B0407A), genistein (GEN, Cat. No. HY-14596), and amiloride hydrochloride (AMR, Cat. No. HY-B0285A), were purchased from MedChemexpress. Zebrafish PAC2 fibroblast cells were transfected with either the PvATP1A expression plasmid (pEGFP-N1-PvATP1A) or the control plasmid pEGFP-N1. Forty-eight hours post-transfection, cells expressing pEGFP-PvATP1A were pre-treated with 5 µM of each endocytic inhibitor (CPZ, GEN, and AMR) or DMSO (as a control) for 30 min. Following pre-treatment, cells were infected with WSSV (MOI = 0.1) for 1 h. The cells were then washed thrice with PBS, and DNA was extracted for quantification of WSSV copy numbers using qPCR. Cytotoxicity of the endocytic inhibitors on PAC2 cells was assessed using the CCK8 kit (Beyotime, China, Cat. No. C0037), following the manufacturer’s instructions.

Compound | change in response units (RU) of the VP28-coated chip (WSSV VP28 protein) | effect on WSSV entry and replication in shrimp hemocytes (WSSV [1]) | WSSV entry, viral copy numbers in PvATP1A-overexpressing cells (WSSV [2]) | ranking among the endocytic inhibitors for virus entry (WSSV [1])
MVSKGEELFT [pEGFP] | no changes in the response units |  |  | 
CN(C)CCCN1c2ccccc2Sc2ccc(Cl)cc21 [CPZ, chlorpromazine hydrochloride] |  | inhibited WSSV entry and replication |  | 
N=C(N)NC(=O)c1nc(Cl)c(N)nc1N [AMR, amiloride hydrochloride] |  | inhibited WSSV entry and replication | significantly decreased viral copy numbers | 
O=c1c(-c2ccc(O)cc2)coc2cc(O)cc(O)c12 [GEN, genistein] |  | inhibited WSSV entry and replication | significantly decreased viral copy numbers | most potent inhibitors of virus entry
